Assay results reported in US20220088100A1, “COSMETIC, PHARMACEUTICAL AND NUTRACEUTICAL USE OF AN EXTRACT DERIVED FROM CANNABISSATIVA CELL CULTURES” (ARTERRA BIOSCIENCE S.P.A., priority 2018, published 2022).
Counter-ions that a name gives are not always drawn.

Tested on: histamine production in RAW 264.7 cells (macrophages)
Test: Histamine content in macrophages stressed with CGRP
Type: cell-based
Settings: RAW 264.7, 50 μg/ml 2 h, then 10 nM CGRP 16 h; reduction compared with that of the extract
Protocol: To determine whether the plant cell culture extract according to the invention was able to reduce the production of histamine induced by the CGRP peptide in the immune system cells, an assay was conducted for the quantization of the histamine content in macrophages subjected to a stress condition by the CGRP neuropeptide.
RAW 264.7 cells were seeded in 96-well plates in an initial number of 5×10^4, and after 16 h, they were treated with different doses of the extract or with the anti-histamine compound cetirizine dihydrochloride (50 μg/ml), used as a positive control of the experiment. After 2 h of treatment with the extract or with cetirizine, the production of histamine was induced by the treatment with 10 nM of CGRP and, after 16 h, the amount of histamine was measured by adding 100 μl of methanol containing 0.4 M NaOH and 1 mg/ml of o-Phthaldialdehyde (OPT). After 10 minutes of incubation at room temperature, 50 μl of 0.1M HCl was added to each well to stop the reaction. Fluorescence was measured at 443 nm using a 360 nm excitation wavelength from the multi-plate reader, Victor3 (Perkin Elmer). The histamine content was calculated as a percentage of the value of the control cells stressed with 10 nM CGRP, arbitrarily set as 100%.

O=C(O)COCCN1CCN(C(c2ccccc2)c2ccc(Cl)cc2)CC1 (stereo not shown) [cetirizine, cetirizine dihydrochloride]
production of histamine in macrophages, positive control: similarly
